The target of test [1] is T1, BCAT2 (Homo sapiens, UniProt O15382).
T1 sequence (O15382 28-392): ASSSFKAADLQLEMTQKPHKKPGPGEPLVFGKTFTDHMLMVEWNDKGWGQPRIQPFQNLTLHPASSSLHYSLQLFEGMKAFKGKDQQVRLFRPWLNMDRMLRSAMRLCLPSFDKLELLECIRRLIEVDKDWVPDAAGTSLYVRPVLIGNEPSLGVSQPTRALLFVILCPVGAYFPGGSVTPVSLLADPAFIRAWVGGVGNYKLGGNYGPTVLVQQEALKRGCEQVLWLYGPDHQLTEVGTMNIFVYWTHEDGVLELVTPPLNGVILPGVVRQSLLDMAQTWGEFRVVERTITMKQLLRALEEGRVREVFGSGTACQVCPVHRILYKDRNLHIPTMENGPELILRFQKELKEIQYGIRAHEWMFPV
The test can be described thus: BCAT2 in vitro enzyme inhibition assay (hBCAT2, glutamate dehydrogenase/diaphorase/resazurin coupled fluorescence read). Particulars: hBCAT2, 1 h preincubation at 25° C., one hour reaction; average where tested multiple times. The test is classed as biochemical. The procedure, abridged: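 Coupled GDH/diaphorase/resazurin fluorescence (Ex 540/Em 590) read after 1 h reaction at 25 °C, SDS-stopped; enzyme (0.33 μg/mL in mix) first preincubated 1 h with compound, 10-point 3-fold series from 100 μM final, Tris pH 8.0 buffer with NaCl, BSA; technical duplicates, averaged across tests.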

In test [2] the target is T1, BCAT2. The test can be described thus: BCAT2 cell inhibition using engineered A549 cells (MUT KO, BCAT1 KO; 13C6-KMV formation by LC-MS/MS). The arrangement: expressed endogenous BCAT2; endogenous in cells; host or cells: A549 cells, MUT knockout and BCAT1 knockout. The test is classed as cell-based. The procedure, abridged:
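Medium 13C6-KMV formation is read by LC-MS/MS after PFBHA derivatization with d8-KMV internal standard. Cells are CRISPR MUT/BCAT1 double-knockout A549 expressing endogenous BCAT2, given compound 15 min before labelled isoleucine (800 uM, added 1:1) for 24 h. CTG viability run in parallel; replicates averaged.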

The mark [3] stands for this setting: read-out: BCAT2 Cell Inhibition (IC50), engineered A549 cells, 24 hours, 13C6-KMV in media, average where tested multiple times.

Results on 17 molecules are retold here after patent US20260334439A1, “BCAT2 INHIBITORS” (Agios Pharmaceuticals, Inc., priority 2023, published 2026).

Each structure is given as a SMILES string.

As to `O=C1c2cc(Cl)ccc2OCN1[C@H]1CCC[C@@H](n2c(-c3ccccc3F)nc3cnc(-c4nc[nH]n4)cc32)C1` [Example 202, 6-chloro-3-((1S,3R)-3-(2-(2-fluorophenyl)-6-(1H-1,2,4-triazol-3-yl)-1H-imidazo[4,5-c]pyridin-1-yl)cyclohexyl)-2,3-dihydro-4H-benzo[e][1,3]oxazin-4-one], the half-inhibitory concentration (IC50) in test [1] and in test [2] was below 100 nM each time.
Consider `O=C1c2cc(F)ccc2OCN1[C@H]1CCC[C@@H](n2c(-c3ccccc3F)nc3cnc(-c4nc[nH]n4)cc32)C1` [Example 204, 6-fluoro-3-((1S,3R)-3-(2-(2-fluorophenyl)-6-(1H-1,2,4-triazol-3-yl)-1H-imidazo[4,5-c]pyridin-1-yl)cyclohexyl)-2,3-dihydro-4H-benzo[e][1,3]oxazin-4-one], for which the IC50 in test [1] and in test [2] was below 100 nM throughout.
Turning to `O=C1c2cc(Cl)ccc2NCN1[C@H]1CCC[C@@H](n2c(-c3ccccc3F)nc3cnc(-c4nc[nH]n4)cc32)C1` [Example 206, 6-chloro-3-((1S,3R)-3-(2-(2-fluorophenyl)-6-(1H-1,2,4-triazol-3-yl)-1H-imidazo[4,5-c]pyridin-1-yl)cyclohexyl)-2,3-dihydroquinazolin-4(1H)-one], the IC50 in test [1] and in test [2] was below 100 nM throughout.
Turning to `O=C1c2cc(F)ccc2NCN1[C@H]1CCC[C@@H](n2c(-c3ccccc3F)nc3cnc(-c4nc[nH]n4)cc32)C1` [Example 208, 6-fluoro-3-((1S,3R)-3-(2-(2-fluorophenyl)-6-(1H-1,2,4-triazol-3-yl)-1H-imidazo[4,5-c]pyridin-1-yl)cyclohexyl)-2,3-dihydroquinazolin-4(1H)-one], the IC50 in test [1] and in test [2] was below 100 nM in each case.
With `O=c1c2cc(F)ccc2ncn1[C@H]1CCC[C@@H](n2c(-c3ccccc3F)nc3cnc(-c4nc[nH]n4)cc32)C1` [Example 209, 6-fluoro-3-((1S,3R)-3-(2-(2-fluorophenyl)-6-(1H-1,2,4-triazol-3-yl)-1H-imidazo[4,5-c]pyridin-1-yl)cyclohexyl)quinazolin-4(3H)-one], the IC50 in test [1] and in test [2] was below 100 nM in each case.
Turning to `O=C1c2cc(F)ccc2CCN1[C@H]1CCC[C@@H](n2c(-c3ccccc3F)nc3cnc(-c4nc[nH]n4)cc32)C1` [Example 212, 7-fluoro-2-((1S,3R)-3-(2-(2-fluorophenyl)-6-(1H-1,2,4-triazol-3-yl)-1H-imidazo[4,5-c]pyridin-1-yl)cyclohexyl)-3,4-dihydroisoquinolin-1(2H)-one], the IC50 in test [1] and in test [2] was below 100 nM throughout.
Consider `O=C1c2cc(Cl)ccc2OCN1[C@H]1CCC[C@@H](n2c(-c3ccccc3F)nc3cnc(-c4nc[nH]n4)cc32)[C@@H]1O` [Example 213, 6-chloro-3-((1S,2S,3R)-3-(2-(2-fluorophenyl)-6-(1H-1,2,4-triazol-3-yl)-1H-imidazo[4,5-c]pyridin-1-yl)-2-hydroxycyclohexyl)-2,3-dihydro-4H-benzo[e][1,3]oxazin-4-one], for which the 50% inhibitory concentration (IC50) in test [1] and in test [2] was below 100 nM in each case.
For `O=C1c2cc(Cl)ccc2OCN1[C@H]1CCC[C@@H](n2c(-c3ccccc3F)nc3cnc(-n4nccn4)cc32)[C@@H]1O` [Example 214, 6-chloro-3-((1S,2S,3R)-3-(2-(2-fluorophenyl)-6-(2H-1,2,3-triazol-2-yl)-1H-imidazo[4,5-c]pyridin-1-yl)-2-hydroxycyclohexyl)-2,3-dihydro-4H-benzo[e][1,3]oxazin-4-one], the IC50 in test [1] and in test [2] was below 100 nM throughout.
In the case of `O=C1c2cc(Cl)ccc2OCN1[C@H]1CCC[C@@H](n2c(-c3ccccc3F)nc3cnc(-c4ncco4)cc32)[C@@H]1O` [Example 215, 6-chloro-3-((1S,2S,3R)-3-(2-(2-fluorophenyl)-6-(oxazol-2-yl)-1H-imidazo[4,5-c]pyridin-1-yl)-2-hydroxycyclohexyl)-2,3-dihydro-4H-benzo[e][1,3]oxazin-4-one], the IC50 in test [1] and in test [2] was below 100 nM in each case.
For the molecule `COc1ccc(Cl)cc1C(=O)N[C@H]1CCC[C@@H](n2c(-c3ccccc3F)nc3ccc(-c4nc[nH]n4)cc32)[C@@H]1O` [Example 217, 5-chloro-N-((1S,2R,3R)-3-(2-(2-fluorophenyl)-6-(1H-1,2,4-triazol-3-yl)-1H-benzo[d]imidazol-1-yl)-2-hydroxycyclo-hexyl)-2-methoxybenzamide], the results for the IC50 in test [1] and in test [2] (setting [3]) were below 100 nM and above 1000 nM, respectively.
Take `O=C(N[C@H]1CCC[C@@H](n2c(-c3ccccc3F)nc3ccc(-c4nc[nH]n4)cc32)[C@@H]1O)c1cc(Cl)ccn1` [Example 218, 4-chloro-N-((1S,2R,3R)-3-(2-(2-fluorophenyl)-6-(1H-1,2,4-triazol-3-yl)-1H-benzo[d]imid-azol-1-yl)-2-hydroxycyclohex-yl)picolinamide]: the IC50 (commonly the concentration at which inhibition is half-maximal) in test [1] was below 100 nM; in test [2], 100 to 500 nM.
Turning to `CC(C)Cc1nc2ccc(-c3ncccn3)cc2n1[C@@H]1CCC[C@H](NC(=O)c2cc(Cl)ccn2)[C@H]1O` [Example 219, 4-chloro-N-((1S,2R,3R)-2-hydroxy-3-(2-isobutyl-6-(pyrim-idin-2-yl)-1H-benzo[d]imidazol-1-yl)cyclohexyl)picolinamide], the IC50 in test [1] was below 100 nM; in test [2], 100 to 500 nM.
Take `CO[C@H]1C[C@H](NC(=O)c2cc(F)ccn2)C[C@H](n2c(-c3ccccc3F)nc3ccc(-c4nc[nH]n4)cc32)C1` [Example 221, 4-fluoro-N-((1S,3R,5R)-3-(2-(2-fluorophenyl)-6-(1H-1,2,4-triazol-3-yl)-1H-benzo[d]imid-azol-1-yl)-5-methoxycyclohex-yl)picolinamide]: the IC50 in test [1] was below 100 nM; in test [2] (setting [3]) it was above 1000 nM.
`O=C(N[C@H]1CCC[C@@H](n2c(-c3ccccc3F)nc3ccc(-c4nc[nH]n4)cc32)C1)c1cc(F)ccn1` [Example 226, 4-fluoro-N-((1S,3R)-3-(2-(2-fluorophenyl)-6-(1H-1,2,4-triazol-3-yl)-1H-benzo[d]imid-azol-1-yl)cyclohexyl)picolin-amide]: the IC50 in test [1] is below 100 nM; in test [2], 100 to 500 nM.
For `O=C(N[C@H]1CCC[C@@H](n2c(-c3c(O)cccc3F)nc3ccc(-c4nc[nH]n4)cc32)C1)c1cc(Cl)ccn1` [Example 227, 4-chloro-N-((1S,3R)-3-(2-(2-fluoro-6-hydroxyphenyl)-6-(1H-1,2,4-triazol-3-yl)-1H-benzo[d]imidazol-1-l)cyclohexyl)picolin-amide], the IC50 in test [1] is below 100 nM; in test [2], 100 to 500 nM.
In the case of `O=C(N[C@H]1CCC[C@@H](n2c(-c3ccccc3F)nc3ccc(-c4nc[nH]n4)c(F)c32)C1)c1cc(Cl)ccn1` [Example 230, 4-chloro-N-((1S,3R)-3-(7-fluoro-2-(2-fluorophenyl)-6-(1H-1,2,4-triazol-3-yl)-1H-benzo[d]imidazol-1-yl)cyclohexyl)picolinamide], the IC50 in test [1] and in test [2] was below 100 nM in each case.
On to `N#Cc1ccccc1-c1nc2ccc(-c3ncccn3)cc2n1[C@@H]1CCC[C@H](N2Cc3ccc(F)cc3C2=O)C1` [Example 239, 2-(1-((1R,3S)-3-(6-fluoro-1-oxoisoindolin-2-yl)cyclohexyl)-6-(pyrimidin-2-yl)-1H-benzo[d]imidazol-2-yl)benzonitrile], for which the half-inhibitory concentration (IC50) in test [1] and in test [2] was below 100 nM throughout.
